Where a name gives a salt, the structure may show the parent alone.
biological target: T1, NMDA receptor composed of four subunits including 2 sets of heterodimers of NR1 and NR2B (Homo sapiens, UniProt Q13224); assay: NR2B Ca2+ influx assay (FLIPR, Fluo-4) in HEK293 cells expressing human GRIN1 and GRIN2B; assay type: cell-based; conditions: HEK293, 10 μM final compound concentration, glutamic acid/glycine-induced Ca2+ influx, read-out: inhibitory rate (10 μM compound concentration)
T1 construct: host or cells: HEK293 (tetracycline-induced expression)
T1 sequence (Q13224 27-1484, other chains not shown): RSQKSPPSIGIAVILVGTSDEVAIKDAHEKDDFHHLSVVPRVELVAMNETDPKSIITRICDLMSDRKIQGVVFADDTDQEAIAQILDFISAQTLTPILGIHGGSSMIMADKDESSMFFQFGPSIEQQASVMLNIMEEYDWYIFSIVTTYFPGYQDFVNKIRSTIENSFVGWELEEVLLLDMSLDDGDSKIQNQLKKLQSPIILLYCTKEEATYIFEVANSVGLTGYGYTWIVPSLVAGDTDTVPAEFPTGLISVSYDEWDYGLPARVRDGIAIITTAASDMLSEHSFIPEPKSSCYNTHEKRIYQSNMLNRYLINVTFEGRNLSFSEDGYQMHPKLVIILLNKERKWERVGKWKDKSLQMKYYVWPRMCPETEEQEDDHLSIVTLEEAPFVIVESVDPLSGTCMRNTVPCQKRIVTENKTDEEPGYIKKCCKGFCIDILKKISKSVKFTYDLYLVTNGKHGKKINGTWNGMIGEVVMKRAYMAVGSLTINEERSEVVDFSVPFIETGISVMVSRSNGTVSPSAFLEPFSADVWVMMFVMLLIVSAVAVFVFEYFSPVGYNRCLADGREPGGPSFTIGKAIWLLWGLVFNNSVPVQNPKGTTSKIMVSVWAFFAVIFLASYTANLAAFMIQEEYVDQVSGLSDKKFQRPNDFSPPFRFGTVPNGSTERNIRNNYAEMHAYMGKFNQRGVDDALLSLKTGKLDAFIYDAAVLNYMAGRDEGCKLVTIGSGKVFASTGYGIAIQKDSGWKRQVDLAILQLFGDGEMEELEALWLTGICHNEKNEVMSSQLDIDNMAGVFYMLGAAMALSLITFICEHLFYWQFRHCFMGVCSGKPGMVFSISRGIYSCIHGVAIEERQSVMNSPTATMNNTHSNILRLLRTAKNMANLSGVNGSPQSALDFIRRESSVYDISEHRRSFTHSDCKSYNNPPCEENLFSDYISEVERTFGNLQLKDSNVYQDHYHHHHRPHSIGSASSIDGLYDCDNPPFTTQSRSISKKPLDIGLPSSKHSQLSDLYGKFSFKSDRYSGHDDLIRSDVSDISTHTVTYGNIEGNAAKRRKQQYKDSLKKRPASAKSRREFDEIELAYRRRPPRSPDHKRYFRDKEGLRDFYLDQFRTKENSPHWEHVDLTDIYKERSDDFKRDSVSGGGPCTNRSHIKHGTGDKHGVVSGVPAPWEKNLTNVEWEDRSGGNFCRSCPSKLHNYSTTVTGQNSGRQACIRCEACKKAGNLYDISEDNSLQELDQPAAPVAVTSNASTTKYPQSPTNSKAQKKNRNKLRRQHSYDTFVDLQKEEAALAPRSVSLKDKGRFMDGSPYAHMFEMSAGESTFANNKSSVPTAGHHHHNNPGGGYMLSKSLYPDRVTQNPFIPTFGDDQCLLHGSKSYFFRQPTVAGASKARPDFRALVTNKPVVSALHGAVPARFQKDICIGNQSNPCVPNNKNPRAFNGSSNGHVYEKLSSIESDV
Outline: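 Tetracycline-induced (2 h) HEK293 cells expressing human GRIN1/GRIN2B, Fluo-4-loaded, were preincubated 15 min at room temperature with compound at 10 μM final. FLIPR recorded Ca2+ influx every 3 s for 5 min after glutamate/glycine addition (30 μM in added buffer); inhibition from cumulative fluorescence relative to agonist-free wells.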

inhibition at 10 µM	Structure (SMILES)
92%	CCc1ccc2ncn(C)c2c1CNC(=O)c1csc(Cl)c1 [Example 147, 5-chloro-N-((6-ethyl-1-methyl-1H-benzimidazol-7-yl)methyl)thiophene-3-carboxamide]
91%	CCc1ccc2ncn(C)c2c1CNC(=O)c1ccc(OC(F)F)cc1 [Example 148, 4-(difluoromethoxy)-N-((6-ethyl-1-methyl-1H-benzimidazol-7-yl)methyl)benzamide]
93%	CCc1ccc2ncn(C)c2c1CNC(=O)c1ccc(OC(F)(F)F)nc1 [Example 149, N-((6-ethyl-1-methyl-1H-benzimidazol-7-yl)methyl)-6-(trifluoromethoxy)-nicotinamide]
60%	CCn1cnc2ccc(OC)c(CNC(=O)c3cnc(OC)c(F)c3)c21 [Example 150, N-((1-ethyl-6-methoxy-1H-benzimidazol-7-yl)methyl)-5-fluoro-6-methoxynicotinamide]
83%	CCn1cnc2ccc(OC)c(CNC(=O)c3cc(F)c(OC)c(F)c3)c21 [Example 151, N-((1-ethyl-6-methoxy-1H-benzimidazol-7-yl)methyl)-3,5-difluoro-4-methoxybenzamide]
91%	Cc1ccc2ncn(C)c2c1CNC(=O)c1ccc(OC(F)(F)F)cc1 [Example 152, N-((1,6-dimethyl-1H-benzimidazol-7-yl)methyl)-4-(trifluoromethoxy)benzamide]
90%	O=C(NCc1c(C2CC2)ccc2[nH]ncc12)c1cc(F)c(OC(F)F)c(F)c1 [Example 153, N-((5-cyclopropyl-1H-indazol-4-yl)methyl)-4-(difluoromethoxy)-3,5-difluorobenzamide]
91%	O=C(NCc1c(C2CC2)ccc2[nH]ncc12)c1csc(C(F)F)c1 [Example 154, N-((5-cyclopropyl-1H-indazol-4-yl)methyl)-5-(difluoromethyl)-thiophene-3-carboxamide]
92%	O=C(NCc1c(C2CC2)ccc2[nH]ncc12)c1ccc(C(F)F)s1 [Example 155, N-((5-cyclopropyl-1H-indazol-4-yl)methyl)-5-(difluoromethyl)-thiophene-2-carboxamide]
76%	Cc1ccc2ncn(C)c2c1CNC(=O)c1csc(Cl)c1 [Example 156, 5-chloro-N-((1,6-dimethyl-1H-benzimidazol-7-yl)methyl)thiophene-3-carboxamide]
85%	Cc1ccc2ncn(C)c2c1CNC(=O)c1ccc(C(F)F)cc1 [Example 157, 4-(difluoromethyl)-N-((1,6-dimethyl-1H-benzimidazol-7-yl)methyl)benzamide]
89%	Cc1ccc2ncn(C)c2c1CNC(=O)c1cc(F)c(OC(F)F)c(F)c1 [Example 158, 4-(difluoromethoxy)-N-((1,6-dimethyl-1H-benzimidazol-7-yl)methyl)-3,5-difluorobenzamide]
86%	Cc1ccc2ncn(C)c2c1CNC(=O)c1ccc(OC(F)F)nc1 [Example 159, 6-(difluoromethoxy)-N-((1,6-dimethyl-1H-benzimidazol-7-yl)methyl)nicotinamide]
65%	COc1c(F)cc(C(=O)NCc2cccc3ncn(C)c23)cc1F [Example 160, 3,5-difluoro-4-methoxy-N-((1-methyl-1H-benzimidazol-7-yl)methyl)benzamide]
92%	COc1ccc2ncn(C)c2c1CNC(=O)c1cc(F)c(OC(F)F)c(F)c1 [Example 161, 4-(difluoromethoxy)-3,5-difluoro-N-((6-methoxy-1-methyl-1H-benzimidazol-7-yl)methyl)benzamide]
92%	COc1ccc2ncn(C)c2c1CNC(=O)c1ccc(C(F)(F)F)s1 [Example 162, N-((6-methoxy-1-methyl-1H-benzimidazol-7-yl)methyl)-5-(trifluoromethyl)-thiophene-2-carboxamide hydrochloride]
